Data on 20 compounds can be found in US10138255B2, “Piperazine derivatives as HIV protease inhibitors” (Merck Sharp & Dohme Corp., priority 2014, dated 2018).

SMILES strings stand for the structures.

This assay deals with HIV-1 (H9IIIB strain). Kind of assay: Cell-Based HIV Infection Assay Using a Reporter (MT4-GFP cells). Particulars: Human immunodeficiency virus 1, inflection point (IP) of viral growth inhibition; MT4-GFP cells infected with HIV-1 H9IIIB; 50% normal human serum; mean of at least two independent experiments; read-out: Cell Based IP (50% NHS). In outline:
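MT4-GFP cells (HIV LTR-driven GFP) bulk-infected with HIV-1 H9IIIB at low MOI for 24 h, washed, then exposed to compounds in RPMI plus 50% normal human serum, 0.4% DMSO. Infected cells counted at 24 and 48 h; R0 = 48 h/24 h ratio, inhibition normalised to DMSO and triple-drug control; IP from 4-parameter fit.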
For the compound `CC(C)[C@H](c1ccc(Cl)cc1)[C@H](N)C(=O)N[C@H]1CCCC[C@@H]1CC[C@H]1CN[C@@H]2CCCS(=O)(=O)N1C2` [Example 161, (βR)-4-chloro-N-[(1S,2R)-2-{2-[(6R,9S)-2,2-dioxido-2-thia-1,7-diazabicyclo[4.3.1]dec-9-yl]ethyl}cyclohexyl]-β-(1-methylethyl)-L-phenylalaninamide], the EC50 was 78 nM. Consider `C[C@@H]1CC([C@H](c2ccc(Cl)cc2)[C@H](N)C(=O)N[C@H]2CCCC[C@@H]2CC[C@H]2CN[C@@H]3CCCS(=O)(=O)N2C3)C[C@H](C)O1` (stereo partly drawn) [Example 162, (βR)-4-chloro-β-[(2R,6S)-2,6-dimethyltetrahydro-2H-pyran-4-yl]-N-[(1S,2R)-2-{2-[(6R,9S)-2,2-dioxido-2-thia-1,7-diazabicyclo[4.3.1]dec-9-yl]ethyl}cyclohexyl]-L-phenylalaninamide], for which the EC50 came to 37 nM. With `N[C@H](C(=O)Nc1cccc(F)c1CCC1CNC2CCCS(=O)(=O)N1C2)[C@@H](c1ccc(Cl)cc1)C1CCOC(CC(F)(F)F)C1` (stereo partly drawn) [Example 163, (βR)-4-chloro-N-{2-[2-(2,2-dioxido-2-thia-1,7-diazabicyclo[4.3.1]dec-9-yl)ethyl]-3-fluorophenyl}-β-[2-(2,2,2-trifluoroethyl)telrahydro-2H-pyran-4-yl]-L-phenylalaninamide], the EC50 stood at 19 nM. As for `C[C@@H]1CC([C@H](c2ccc(Cl)c(F)c2)[C@H](N)C(=O)Nc2cccc(F)c2CC[C@H]2CN[C@@H]3CCCS(=O)(=O)N2C3)C[C@H](C)O1` (stereo partly drawn) [Example 165, (βR)-4-chloro-β-[(2R,6S)-2,6-dimethyltetrahydro-2H-pyran-4-yl]-N-(2-{2-[(6R,9S)-2,2-dioxido-2-thia-1,7-diazabicyclo[4.3.1]dec-9-yl]ethyl}-3-fluorophenyl)-3-fluoro-L-phenylalaninamide], the EC50 was found to be 7.5 nM. The result for `C[C@@H]1CC([C@H](c2ccc(F)cc2)[C@H](N)C(=O)Nc2ccc(F)c(F)c2CC[C@H]2CN[C@@H]3CCCS(=O)(=O)N2C3)C[C@H](C)O1` (stereo partly drawn) [Example 166, (βR)-β-[(2R,6S)-2,6-dimethyltetrahydro-2H-pyran-4-yl]-N-(2-{2-[(6R,9S)-2,2-dioxido-2-thia-1,7-diazabicyclo[4.3.1]dec-9-yl]ethyl}-3,4-difluorophenyl)-4-fluoro-L-phenylalaninamide] reads 25 nM.

With `COC(=O)N[C@H](C(=O)Nc1cccc(F)c1CC[C@H]1CN[C@@H]2CCCS(=O)(=O)N1C2)[C@@]1(c2ccc(Cl)cc2)C[C@@H](C)O[C@@H](C)C1` [Example 167, methyl {(1S)-1-[(2R,4r,6S)-4-(4-chlorophenyl)-2,6-dimethyltetrahydro-2H-pyran-4-yl]-2-[(2-{2-[(6R,9S)-2,2-dioxido-2-thia-1,7-diazabicyclo[4.3.1]dec-9-yl]ethyl}-3-fluorophenyl)amino]-2-oxoethyl}carbamate], the EC50 was determined as 27 nM.

Regarding `C[C@@H]1C[C@](c2ccc(Cl)cc2)([C@H](N)C(=O)Nc2cccc(F)c2CC[C@H]2CN[C@@H]3CCCS(=O)(=O)N2C3)C[C@H](C)O1` [Example 168, (2S)-2-amino-2-[(2R,4r,6S)-4-(4-chlorophenyl)-2,6-dimethyltetrahydro-2H-pyran-4-yl]-N-(2-{2-[(6R,9S)-2,2-dioxido-2-thia-1,7-diazabicyclo[4.3.1]dec-9-yl]ethyl}-3-fluorophenyl)ethanamide], the EC50 stood at 170 nM. For the compound `COC(=O)N[C@H](C(=O)N[C@H]1CCCC[C@@H]1CC[C@H]1CN[C@@H]2CCCS(=O)(=O)N1C2)[C@@]1(c2ccc(Cl)cc2)C[C@@H](C)O[C@@H](C)C1` [Example 169, methyl [(1S)-1-[(2R,4r,6S)-4-(4-chlorophenyl)-2.6-dimethyltetrahydro-2H-pyran-4-yl]-2-{[(1S,2R)-2-{2-[(6R,9S)-2,2-dioxido-2-thia-1,7-diazabicyclo[4.3.1]dec-9-yl]ethyl}cyclohexyl]amino}-2-oxoethyl]carbamate], the EC50 was found to be 89 nM. The result for `C[C@@H]1C[C@](c2ccc(Cl)cc2)([C@H](N)C(=O)N[C@H]2CCCC[C@@H]2CC[C@H]2CN[C@@H]3CCCS(=O)(=O)N2C3)C[C@H](C)O1` [Example 170, (2S)-2-amino-2-[(2R,4r,6S)-4-(4-chlorophenyl)-2,6-dimethyltetrahydro-2H-pyran-4-yl]-N-[(1S,2R)-2-{2-[(6R,9S)-2,2-dioxido-2-thia-1,7-diazabicyclo[4.3.1]dec-9-yl]ethyl}cyclohexyl]ethanamide] reads 230 nM; that for `CO[C@H]1CC[C@](c2ccc(Cl)cc2)([C@H](N)C(=O)Nc2cccc(F)c2CC[C@H]2CN[C@@H]3CCCS(=O)(=O)N2C3)CC1` [Example 171, (2S)-2-amino-2-[trans-1-(4-chlorophenyl)-4-methoxycyclohexyl]-N-(2-{2-[(6R,9S)-2,2-dioxido-2-thia-1,7-diazabicyclo[4.3.1]dec-9-yl]ethyl}-3-fluorophenyl)ethanamide], 34 nM.

Regarding `COC(=O)N[C@H](C(=O)Nc1cccc(F)c1CCC1CNC2CCCS(=O)(=O)N1C2)[C@@H](c1ccc(Cl)cc1)C1CCOC(CC(F)(F)F)C1` (stereo partly drawn) [Example 172, methyl {(1S,2R)-2-(4-chlorophenyl)-1-({2-[2-(2,2-dioxido-2-thia-1,7-diazabicyclo[4.3.1]dec-9-yl)ethyl]-3-fluorophenyl}carbamoyl)-2-[2-(2,2,2-trifluoroethyl)tetrahydro-2H-pyran-4-yl]ethyl}carbamate], the EC50 was 38 nM.

On to `N[C@H](C(=O)Nc1cncc(F)c1CC[C@H]1CN[C@@H]2CCCS(=O)(=O)N1C2)[C@@H](c1ccc(Cl)cc1)C1CCOCC1` [Example 173, (βR)-4-chloro-N-(4-{2-[(6R,9S)-2,2-dioxido-2-thia-1,7-diazabicyclo[4.3.1]dec-9-yl]ethyl}-5-fluoropyridin-3-yl)-β-(tetrahydro-2H-pyran-4-yl)-L-phenylalaninamide], for which the EC50 is 23 nM. Regarding `COC(=O)N[C@H](C(=O)Nc1cncc(F)c1CC[C@H]1CN[C@@H]2CCCS(=O)(=O)N1C2)[C@@H](c1ccc(Cl)cc1)C1CCOCC1` [Example 174, methyl [(1S,2R)-2-(4-chlorophenyl)-1-[(4-{2-[(6R,9S)-2,2-dioxido-2-thia-1,7-diazabicyclo[4.3.1]dec-9-yl]ethyl}-5-fluoropyridin-3-yl)carbamoyl]-2-(tetrahydro-2H-pyran-4-yl)ethyl]carbamate], the EC50 was determined as 89 nM. For the compound `COC(=O)N[C@H](C(=O)Nc1cccc(F)c1CC[C@H]1CN[C@@H]2CCCS(=O)(=O)N1C2)C1(c2ccc(Cl)cc2)CCN(S(C)(=O)=O)CC1` [Example 175, methyl {(1S)-1-[4-(4-chlorophenyl)-1-(methylsulfonyl)piperidin-4-yl]-2-[(2-{2-[(6R,9S)-2,2-dioxido-2-thia-1,7-diazabicyclo[4.3.1]dec-9-yl]ethyl}-3-fluorophenyl)amino]-2-oxoethyl}carbamate], the EC50 turned out to be 120 nM.

In the case of `CS(=O)(=O)N1CCC(c2ccc(Cl)cc2)([C@H](N)C(=O)Nc2cccc(F)c2CC[C@H]2CN[C@@H]3CCCS(=O)(=O)N2C3)CC1` [Example 176, (2S)-2-amino-2-[4-(4-chlorophenyl)-1-(methylsulfonyl)piperidin-4-yl]-N-(2-{2-[(6R,9S)-2,2-dioxido-2-thia-1,7-diazabicyclo[4.3.1]dec-9-yl]ethyl}-3-fluorophenyl)ethanamide], the EC50 worked out at 150 nM. Under `CCCN[C@H](C(=O)N[C@H]1CCC[C@@H]1CC[C@H]1CN[C@@H]2CCCS(=O)(=O)N1C2)[C@@H](c1ccc(Cl)cc1)C1CCOC(C)(C)C1` (stereo partly drawn) [Example 177, (βR)-4-chloro-β-(2,2-dimethyltetrahydro-2H-pyran-4-yl)-N-[(1S,2R)-2-{2-[(6R,9S)-2,2-dioxido-2-thia-1,7-diazabicyclo[4.3.1]dec-9-yl]ethyl}cyclopentyl]-Nα-propyl-L-phenylalaninamide] stands 400 nM; under `COC(=O)N[C@H](C(=O)Nc1cncc(F)c1CC[C@H]1CN[C@@H]2CCCS(=O)(=O)N1C2)[C@@H](c1ccc(F)cc1)C1CCOCC1` [Example 178, methyl {(1S)-2-[(4-{2-[(6R,9S)-2,2-dioxido-2-thia-1,7-diazabicyclo[4.3.1]dec-9-yl]ethyl}-5-fluoropyridin-3-yl)amino]-1-[(R)-(4-fluorophenyl)(tetrahydro-2H-pyran-4-yl)methyl]-2-oxoethyl}carbamate], 160 nM; under `CC1(C)CC([C@H](c2ccc(F)cc2)[C@H](N)C(=O)Nc2ccc(F)c(F)c2CC[C@H]2CN[C@@H]3CCCS(=O)(=O)N2C3)CCO1` (stereo partly drawn) [Example 179, (βR)-β-(2,2-dimethyltetrahydro-2H-pyran-4-yl)-N-(2-{2-[(6R,9S)-2,2-dioxido-2-thia-1,7-diazabicyclo[4.3.1]dec-9-yl]ethyl}-3,4-difluorophenyl)-4-fluoro-L-phenylalaninamide], 31 nM. The result for `CO[C@H]1CC[C@H]([C@H](c2ccc(F)cc2)[C@H](N)C(=O)Nc2ccc(F)c(F)c2CC[C@H]2CN[C@@H]3CCCS(=O)(=O)N2C3)CC1` [Example 180, (βR)-N-(2-{2-[(6R,9S)-2,2-dioxido-2-thia-1,7-diazabicyclo[4.3.1]dec-9-yl]ethyl}-3,4-difluorophenyl)-4-fluoro-β-[(1r,4R)-4-methoxycyclohexyl]-L-phenylalaninamide] reads 11 nM. On to `CC1(C)CC([C@H](c2ccc(Cl)cc2)[C@H](NCC2CC2)C(=O)N[C@H]2CCC[C@@H]2CC[C@H]2CN[C@@H]3CCCS(=O)(=O)N2C3)CCO1` (stereo partly drawn) [Example 181, (βR)-4-chloro-Nα-(cyclopropylmethyl)-β-(2,2-dimethyltetrahydro-2H-pyran-4-yl)-N-[(1S,2R)-2-{2-[(6R,9S)-2,2-dioxido-2-thia-1,7-diazabicyclo[4.3.1]dec-9-yl]ethyl)cyclopentyl]-L-phenylalaninamide], for which the EC50 was 640 nM.
